Patent US9675555B2, “Liposome-encapsulated bicelles and use thereof in diluted systems” (priority 2010, dated 2017)
Structures can show the parent of a compound that is named as a salt.

Test system: Candida albicans fungus
Assay: Microbiologic activity of nistatine (MIC)
Assay type: cell-based
Conditions: nistatine incorporated to the liposomes of the invention

| Molecule | minimum inhibitory concentration (MIC) |
| --- | --- |
| nistatine | 16 µg/mL |

Test system: not listed separately
Assay: Incorporation of different substances into the systems
Assay type: physicochemical
Conditions: not given
Method: The incorporation was made in the step of formation of the bicelles. Depending on the hydrophilic or lypophilic character of the substance, this was added together with the lipids forming the bicelle in the chloroform step or together with the hydration water. For these preparations, the following blends: DPPC/DHPC, DMPC/DHPC and DOPC/DHPC were selected. The DOPC is dioleoylphosphatidylcholine. The work was carried out with molar rates of the concentrations of both lipids between 2 and 3.5.
The samples were submitted between 10 and 50 sonication cycles in an ultrasound bath for a period of 5 minutes and 5 minutes of freezing until they became clear.
These bicelles, together with the substances internally contained were encapsulated in liposomes in the form described in example 1 and were characterized according to the methods described in example 2.
The nistatine molecule was incorporated to the systems of the invention as described in example 3.

| Molecule | encapsulation within the bicelles contained within the liposomes of the invention |
| --- | --- |
| CNC(=O)CN(CCN(CCN(CC(=O)[O-])CC(=O)NC)CC(=O)[O-])CC(=O)[O-].[Gd+3] [gadodiamide] | efficiently encapsulated |
| O=C(O)Cc1ccccc1Nc1c(Cl)cccc1Cl [dichlophenac] | efficiently encapsulated |
| ceramides | efficiently encapsulated |
| [Fe] [iron] | efficiently encapsulated |
| O=C(O)c1ccccc1Nc1cccc(C(F)(F)F)c1 [flufenamic acid] | efficiently encapsulated |
| CC(C)CCC[C@@H](C)[C@H]1CC[C@H]2[C@@H]3CC=C4C[C@@H](OS(=O)(=O)O)CC[C@]4(C)[C@H]3CC[C@]12C [cholesterol sulfate] | efficiently encapsulated |
| Cn1c(=O)c2c(ncn2C)n(C)c1=O [caffeine] | efficiently encapsulated |

Same assay, conditions: high water content system

| Molecule | quantity of nistatine incorporated into the system of the invention |
| --- | --- |
| nistatine | about 15.75 mg/ml |
